From patent US9701664B2, “Fused 1,4-dihydrodioxin derivatives as inhibitors of heat shock transcription factor 1” (Cancer Research Technology Limited, priority 2013, dated 2017)

Tested on: HSP72 in U2OS cells
Test: Cell-based ELISA (Cellisa) assay, U2OS cells: inhibition of 17-AAG-induced HSP72
Details: Homo sapiens; U2OS cells (Examples 1-168)
Method: U2OS cells (5-8×10^4 cells/mL) or SK-OV-3 cells (5-8×10^4 cells/mL) were seeded into 96-well plates and incubated at 37° C. for 48 h. Compounds were then added at a range of concentrations and incubated for 1 h before addition of 17-AAG (250 nM). Cells were then incubated for 18 h. The medium was removed washed 2× with PBS and cells were then fixed with fixing solution (4% paraformaldehyde, 0.3% TritonX-100 in PBS) for 30 min at 4° C. The plates were then washed 2× with PBS before blocking with 5% milk for 30 min at 37° C. After washing the plates 4× with 0.1% Tween-20/deionised water, HSP72 antibody (SPA-810, Enzo Life) was added for 1.5 h at 37° C. Following 4× washes, the plates were incubated with europium-labelled anti-mouse antibody (0.6 ug/ml) in Delfia assay buffer (Perkin Elmer) for 1 h at 37° C. After washing the plates, Delfia enhancement solution was added, shaken for 10 min before reading in the Envision plate reader (Perkin-Elmer) with excitation at 340 nm and emission at 615 nm. The plates were washed again before protein determination using the bicinchoninic acid assay (BCA assay, Pierce Biotechnology). The europium counts were normalised for the amount of protein in each well. The 50% inhibitory concentration value of the compound was then calculated.

| SMILES | IC50 [nM] |
| --- | --- |
| Cc1ccc(NC(=O)c2ccc3c(c2)OCCO3)cc1NC(=O)c1ccc2ncccc2c1 [Example 1, N-(5-(2,3-dihydrobenzo[b][1,4]dioxine-6-carboxamido)-2-methylphenyl)quinoline-6-carboxamide] | 5 |
| Cc1ccc(NC(=O)c2ccc3c(c2)OCCO3)cc1NC(=O)c1ccc2ccncc2c1 [Example 2, N-(5-(2,3-dihydrobenzo[b][1,4]dioxine-6-carboxamido)-2-methylphenyl)isoquinoline-7-carboxamide] | 7 |
| Cc1ccc(NC(=O)c2ccc3c(c2)OCCO3)cc1NC(=O)c1ccc2nc(Cl)ccc2c1 [Example 12, 2-chloro-N-(5-(2,3-dihydrobenzo[b][1,4]dioxine-6-carboxamido)-2-methylphenyl)quinoline-6-carboxamide] | 51 |
| Cc1ccc(NC(=O)c2ccc3c(c2)OCCO3)cc1NC(=O)c1ccc(OCc2cncs2)cc1 [Example 20, N-(4-methyl-3-(4-(thiazol-5-ylmethoxy)benzamido)phenyl)-2,3-dihydrobenzo[b][1,4]dioxine-6-carboxamide] | 1480 |
| COCCOc1cc(OC)c2cc(C(=O)Nc3cc(NC(=O)c4ccc5c(c4)OCCO5)ccc3C)ccc2n1 [Example 22, N-(5-(2,3-dihydrobenzo[b][1,4]dioxine-6-carboxamido)-2-methylphenyl)-4-methoxy-2-(2-methoxyethoxy)quinoline-6-carboxamide] | 160 |
| Cc1ccc(NC(=O)c2ccc3c(c2)OCCO3)cc1NC(=O)c1ccc2c(ccc[n+]2[O-])c1 [Example 23, 6-((5-(2,3-dihydrobenzo[b][1,4]dioxine-6-carboxamido)-2-methylphenyl)carbamoyl)quinoline 1-oxide] | 161 |
| Cc1ccc(NC(=O)c2ccc3c(c2)OCCO3)cc1NC(=O)c1ccc2c(c1)CCN2C(=O)OC(C)(C)C [Example 30, tert-butyl 5-((5-(2,3-dihydrobenzo[b][1,4]dioxine-6-carboxamido)-2-methylphenyl)carbamoyl)indoline-1-carboxylate] | 507 |
| Cc1ccc(NC(=O)c2ccc3c(c2)OCCO3)cc1NC(=O)c1ccc2c(c1)CCN(C(=O)OC(C)(C)C)C2 [Example 31, tert-butyl 6-((5-(2,3-dihydrobenzo[b][1,4]dioxine-6-carboxamido)-2-methylphenyl)carbamoyl)-3,4-dihydroisoquinoline-2(1H)-carboxylate] | 545 |
| Cc1ccc(NC(=O)c2ccc3c(c2)OCCO3)cc1NC(=O)c1ccc2nc(N3CCOCC3)ccc2c1 [Example 32, N-(5-(2,3-dihydrobenzo[b][1,4]dioxine-6-carboxamido)-2-methylphenyl)-2-morpholinoquinoline-6-carboxamide] | 665 |
| Cc1ccc(NC(=O)c2ccc3c(c2)OCCO3)cc1NC(=O)c1ccc(-c2ccccc2)nc1 [Example 37, N-(5-(2,3-dihydrobenzo[b][1,4]dioxine-6-carboxamido)-2-methylphenyl)-6-phenylnicotinamide] | 1960 |
| Cc1ccc(NC(=O)c2ccc3c(c2)OCCO3)cc1NC(=O)c1ccc(Nc2cccc(I)c2)nc1 [Example 38, N-(5-(2,3-dihydrobenzo[b][1,4]dioxine-6-carboxamido)-2-methylphenyl)-6-((3-iodophenyl)amino)nicotinamide] | 41 |
| COc1cccc(C(=O)Nc2cc(NC(=O)c3ccc4c(c3)OCCO4)ccc2C)c1 [Example 40, N-(3-(3-methoxybenzamido)-4-methylphenyl)-2,3-dihydrobenzo[b][1,4]dioxine-6-carboxamide] | 1160 |
| Cc1ccc(NC(=O)c2ccc3c(c2)OCCO3)cc1NC(=O)c1ccc2nc(N3CCN(C)CC3)ccc2c1 [Example 74, N-(5-(2,3-dihydrobenzo[b][1,4]dioxine-6-carboxamido)-2-methylphenyl)-2-(4-methylpiperazin-1-yl)quinoline-6-carboxamide] | 232 |
| CCc1ccc2cc(C(=O)Nc3cc(NC(=O)c4ccc5c(c4)OCCO5)ccc3C)ccc2n1 [Example 77, N-(5-(2,3-dihydrobenzo[b][1,4]dioxine-6-carboxamido)-2-methylphenyl)-2-ethylquinoline-6-carboxamide] | 26 |
